Laboratory results from paper PMC3914891, “Pentacyclic Nitrofurans with In Vivo Efficacy and Activity against Nonreplicating Mycobacterium tuberculosis” (PLoS ONE, 2014).
In brackets after ≈: the same amount, converted by molar mass. Like-named read-outs stand apart in the source and are kept apart here.

Legend:
M. tuberculosis H37Rv = assay: Minimum bactericidal concentration determination; type: cell-based, Mycobacterium tuberculosis
in vitro [1] = conditions: mouse, plasma
in vitro [2] = conditions: mouse, microsomes
M. tuberculosis = assay: MIC determination, microbroth dilution, M. tuberculosis; type: cell-based, Mycobacterium tuberculosis; conditions: Mycobacterium tuberculosis
[3] = In vitro cytotoxicity against Vero cells; conditions: African green monkey, Vero cells (kidney epithelial cells, ATCC CCL-81)
M. kansasii (ATCC 12478) = assay: MIC, non-tuberculosis mycobacteria: M. kansasii; type: cell-based; conditions: Mycobacterium kansasii, ATCC12478, 168 h; broth dilution, visual inspection, 7 days; read-out: Minimum Inhibitory Concentration, M. kansasii
[4] = tested on: hypoxic M. tuberculosis strain H37Rv; assay: NRP bacteria under hypoxia (rapid anaerobic dormancy model); type: cell-based, Mycobacterium tuberculosis
M. fortuitum (ATCC 6841) = assay: MIC, non-tuberculosis mycobacteria: M. fortuitum; type: cell-based; conditions: Mycolicibacterium fortuitum, ATCC6841, 72 h; broth dilution, visual inspection, 3 days; read-out: Minimum Inhibitory Concentration, M. fortuitum
[5] = tested on: M. abscessus (ATCC 19977); assay: MIC, non-tuberculosis mycobacteria: M. abscessus; type: cell-based; conditions: Mycobacteroides abscessus, ATCC19977, 72 h, read-out: Minimum Inhibitory Concentration, M. abscessus
[6] = tested on: M. tuberculosis strain H37Rv; assay: Checkerboard synergy assay; type: cell-based, Mycobacterium tuberculosis
M. ulcerans (ATCC 35840) = assay: MIC by agar proportion method: M. ulcerans; type: cell-based; conditions: Mycobacterium ulcerans, ATCC35840, 672 h, read-out: Minimum Inhibitory Concentration, M. ulcerans
M. avium (ATCC 25291) = assay: MIC, non-tuberculosis mycobacteria: M. avium; type: cell-based; conditions: Mycobacterium avium, ATCC25291, 168 h; broth dilution, visual inspection, 7 days; read-out: Minimum Inhibitory Concentration, M. avium
[7] = tested on: Escherichia coli (ATCC 700926); assay: MIC, spectrum of activity: E.c.; type: cell-based; conditions: ATCC700926, read-out: Minimum Inhibitory Concentration, E.c.
[8] = tested on: Staphylococcus aureus (NRS70); assay: MIC, spectrum of activity: MRSA; type: cell-based; conditions: read-out: Minimum Inhibitory Concentration, MRSA
physchem = conditions: pH 7.4, aqueous buffer
[9] = tested on: Streptococcus pyogenes (ATCC 700294); assay: MIC, spectrum of activity: S.py; type: cell-based; conditions: ATCC700294, read-out: Minimum Inhibitory Concentration, S. Py.
[10] = tested on: Stenotrophomonas maltophilia (ATCC 13637); assay: MIC, spectrum of activity: S.m.; type: cell-based; conditions: ATCC13637, read-out: Minimum Inhibitory Concentration, S.m.
[11] = tested on: Bacillus anthracis sterne 34F2; assay: microbe, parasite or virus in culture; type: cell-based; conditions: STERNE34F2, read-out: Minimum Inhibitory Concentration, B.a.
[12] = tested on: Staphylococcus aureus (ATCC 29213); assay: MIC, spectrum of activity: S.a.; type: cell-based; conditions: ATCC29213, read-out: Minimum Inhibitory Concentration, S.a
[13] = tested on: Burkholderia cepacia (ATCC 25416); assay: MIC, spectrum of activity: B.c.; type: cell-based; conditions: ATCC25416, read-out: Minimum Inhibitory Concentration, B.c.
E. coli K12 ∆tolC = type: cell-based; conditions: E. coli K12 ∆tolC (efflux pump deficient)
[14] = tested on: Enterococcus faecalis (ATCC 33186); assay: MIC, spectrum of activity: E.f.; type: cell-based; conditions: ATCC33186, read-out: Minimum Inhibitory Concentration, E.f.
[15] = tested on: Bacillus subtilis (ATCC 23857); assay: MIC, spectrum of activity: B.s.; type: cell-based; conditions: ATCC23857, read-out: Minimum Inhibitory Concentration, B.s.
Vero cells = assay: In vitro cytotoxicity against Vero cells
[16] = tested on: Streptococcus pneumoniae (R6); assay: MIC, spectrum of activity: S.pn; type: cell-based; conditions: read-out: Minimum Inhibitory Concentration, S. Pn.
[17] = rats; IV 10 mg/kg and oral 100 mg/kg
[18] = male, Sprague-Dawley, rat, in vivo
in vivo = conditions: male, Sprague-Dawley, rat

Structure (SMILES) | fraction unbound (in vitro [1]) | half-life (in vitro [2]) [h] | MIC (M. tuberculosis; 168 h, read-out: M. tb. MIC) [mg/L] | IC50 [3] [mg/L] | MIC (M. kansasii (ATCC 12478)) [mg/L] | MIC (M. fortuitum (ATCC 6841)) [mg/L] | MIC (M. avium (ATCC 25291)) [mg/L] | MIC [7] [mg/L] | MIC [8] [mg/L] | solubility (physchem) [µg/mL] | MIC [9] [mg/L] | MIC [10] [mg/L] | MIC [11] [mg/L] | MIC [12] [mg/L] | MIC [13] [mg/L] | Minimum Inhibitory Concentration, E.c. ΔtolC (E. coli K12 ∆tolC) [µg/mL] | MIC [14] [mg/L] | MIC [15] [mg/L] | Selective Index (Cytox/MIC) (Vero cells) | MIC [16] [mg/L] | further results
C[C@]1(COc2ccc(N3CCC(Oc4ccc(OC(F)(F)F)cc4)CC3)cc2)Cn2cc([N+](=O)[O-])nc2O1 [OPC-67683] | 0.002 | 27.2 | 0.01 | 107 (≈ 200 µM) |  |  |  |  |  |  |  |  |  |  |  |  |  |  |  |  | MBC (M. tuberculosis H37Rv): >3; Classification (M. tuberculosis H37Rv; cidal or static from MBC versus MIC): Static (static (MBC/MIC >4)); MIC (M. tuberculosis; M. tuberculosis, […], read-out: MIC): 0.019 µM
CO[C@H]1/C=C/O[C@@]2(C)Oc3c(C)c(O)c4c(O)c(c(/C=N/N5CCN(C)CC5)c(O)c4c3C2=O)NC(=O)/C(C)=C\C=C\[C@H](C)[C@H](O)[C@@H](C)[C@@H](O)[C@@H](C)[C@H](OC(C)=O)[C@@H]1C [Rifampin] |  |  |  |  | 0.39 (≈ 0.474 µM) | 1.56 (≈ 1.9 µM) | 6.3 (≈ 7.66 µM) |  |  |  |  |  |  |  |  |  |  |  |  |  | % Growth vs. Control [4]: <0.1%; MIC ([5]; broth dilution, visual inspection, 3 days, range of at least two independent experiments): 50 mg/L (≈ 60.8 µM); FICI with 9a [6]: 0.38; MIC in presence of 9a [6]: 0.003 mg/L; Type of Interaction [6]: Synergy (key: Synergy: synergy (FICI ≤0.5); Indifference: indifference (FICI >0.5–4.0); Antagonism: antagonism (FICI >4.0)); fold decrease of MIC in the presence of 9a [6]: ~10 fold; MIC ([6]; Mycobacterium tuberculosis, H37RV, 168 h, read-out: MIC Alone): 0.02 to 0.05 mg/L; MIC (M. ulcerans (ATCC 35840)): 0.1 to 0.4 mg/L (≈ 0.122 to 0.486 µM)
O=[N+]([O-])c1ccc(C2=NOC(c3ccc(N4CCC(Oc5ccc(F)cc5)CC4)cc3)C2)o1 (centres unmarked) [Compound 9d, 5-(4-(4-(4-Fluorophenoxy)piperidin-1-yl)phenyl)-3-(5-nitrofuran-2-yl)-4,5-dihydroisoxazole] | 0.009 | 1.43 | 0.012 | 14.7 (≈ 32.6 µM) |  |  |  | > 200 | 100 (≈ 222 µM) | 0.7 (≈ 1.55 µM) | > 200 | 6.3 (≈ 14 µM) | > 200 | 6.3 (≈ 14 µM) | 50 (≈ 111 µM) | >200 | > 200 | 100 (≈ 222 µM) | 1225 | > 200 | 
O=[N+]([O-])c1ccc(C2=NOC(c3ccc(N4CCC(Oc5ccc(OC(F)(F)F)cc5)CC4)nc3)C2)o1 (centres unmarked) [Compound 9b, 3-(5-Nitrofuran-2-yl)-5-(6-(4-(4-(trifluoromethoxy)phenoxy)piperidin-1-yl)pyridin-3-yl)-4,5-dihydroisoxazole] | 0.001 | 6.91 | 0.006 | 4 (≈ 7.72 µM) |  |  |  | > 200 | 200 (≈ 386 µM) | 1.6 (≈ 3.09 µM) | 200 (≈ 386 µM) | 100 (≈ 193 µM) | 50 (≈ 96.4 µM) | 200 (≈ 386 µM) | 100 (≈ 193 µM) | >200 | > 200 | > 200 | 667 | 200 (≈ 386 µM) | Toxicity by intravenous and oral dosing [17]: non-toxic; fe (fraction excreted unchanged in urine) ([18]; iv, 10 mg/kg): 0.01 (0.00) %; Cmin,24 h ([18]; po, 100 mg/kg): 0.11 (0.11) mg/L; Vd (in vivo; iv, 10 mg/kg): 1.53 L/kg; clearance (in vivo; iv, 10 mg/kg): 0.42 L/h/kg; half-life (in vivo; iv, 10 mg/kg): 2.48 h; AUC(0-inf) (in vivo; po, 100 mg/kg): 15.1 µg·h/mL; Cmax (in vivo; po, 100 mg/kg): 2.31 µg/mL; bioavailability (in vivo; po, 100 mg/kg): 8%
NCC[C@H](O)C(=O)N[C@@H]1C[C@H](N)[C@@H](O[C@H]2O[C@H](CN)[C@@H](O)[C@H](O)[C@H]2O)[C@H](O)[C@H]1O[C@H]1O[C@H](CO)[C@@H](O)[C@H](N)[C@H]1O [Amikacin] |  |  |  |  | 6.25 to 12.5 (≈ 10.7 to 21.3 µM) | 0.78 (≈ 1.33 µM) | 12.5 (≈ 21.3 µM) |  |  |  |  |  |  |  |  |  |  |  |  |  | MIC [5]: 3.13 to 6.25 mg/L (≈ 5.34 to 10.7 µM)
